The source made the active and inactive calls. The rule behind the calls is not given here.
What was measured:
[1] = test system: Mus musculus; experiment: Increase in body weight of delta7 mouse harboring FVB.Cg-Tg(SMN2 delta7)4299Ahmb Tg(SMN2)89Ahmb Smn1tm1Msd/J assessed as mouse body weight beyond PND60 at 3 to 10 mg/kg, ip qd administered from PND3 to PND23 followed by 3 to 10 mg/kg/day via oral gavage from PND24 to PND65; assay type: functional, organism-based
[2] = test system: Mus musculus; experiment: Increase in survival of delta7 mouse harboring FVB.Cg-Tg(SMN2 delta7)4299Ahmb Tg(SMN2)89Ahmb Smn1tm1Msd/J assessed as mouse survival beyond PND50 at 1 to 3 mg/kg, ip qd administered from PND3 to PND23 followed by 1 to 3 mg/kg/day via oral gavage from PND24 to PND65; assay type: functional
[3] = Mutagenicity in Salmonella typhimurium TA98 assessed as increase in revertant colonies after 2 days in presence of rat liver S9 fraction by Ames test relative to control; assay type: toxicity; conditions: salmonella enterica subsp. enterica serovar typhimurium, s9, 48 h
[4] = test system: Mus musculus; experiment: (§1) Inhibition of mRNA splicing of SMN2 exon 7 in neonatal delta7 mouse harboring FVB.Cg-Tg(SMN2 delta7)4299Ahmb Tg(SMN2)-89Ahmb Smn1tm1Msd/J assessed as increase in SMN protein level in quadriceps at 3 mg/kg, ip qd administered from postnatal day 3 to postnatal day 9 measured 1 hr after last dose by HTRF assay relative to control; assay type: functional; set-up: scale not given: the % may be the effect or the level left
[5] = test system: Mus musculus; experiment: Increase in survival of delta7 mouse harboring FVB.Cg-Tg(SMN2 delta7)4299Ahmb Tg(SMN2)89Ahmb Smn1tm1Msd/J assessed as mouse survival beyond PND60 at 3 to 10 mg/kg, ip qd administered from PND3 to PND23 followed by 3 to 10 mg/kg/day via oral gavage from PND24 to PND65; assay type: functional
[6] = Volume of distribution at steady state in Cynomolgus monkey at 0.3 mg/kg, iv; assay type: ADME, organism-based, Macaca fascicularis; conditions: in vivo, read-out: Vdss
[7] = test system: Mus musculus; experiment: Increase in survival of ip dosed delta7 mouse harboring FVB.Cg-Tg(SMN2 delta7)4299Ahmb Tg(SMN2)89Ahmb Smn1tm1Msd/J administered intraperitoneally once daily from PND3 to PND23 followed by oral gavage dosing qd from PND24 to PND65; assay type: functional, organism-based
[8] = Mutagenicity in Salmonella typhimurium TA97 assessed as increase in revertant colonies after 2 days in presence of rat liver S9 fraction by Ames test relative to control; assay type: toxicity; conditions: salmonella enterica subsp. enterica serovar typhimurium, s9, 48 h
[9] = AUC in plasma of wild type mouse at 3 mg/kg, ip measured on postnatal day 10; assay type: ADME, organism-based
[10] = test system: Mus musculus; experiment: Increase in body weight of delta7 mouse harboring FVB.Cg-Tg(SMN2 delta7)4299Ahmb Tg(SMN2)89Ahmb Smn1tm1Msd/J assessed as mouse body weight beyond PND50 at 1 to 3 mg/kg, ip qd administered from PND3 to PND23 followed by 1 to 3 mg/kg/day via oral gavage from PND24 to PND65; assay type: functional, organism-based
[11] = test system: Mus musculus; experiment: as §1, with “brain” for “quadriceps”; assay type: functional; set-up: scale not given: the % may be the effect or the level left
[12] = Unbound AUC in plasma of wild type mouse at 3 mg/kg, ip measured on postnatal day 10; assay type: ADME, organism-based; conditions: in vivo
[13] = species: Homo sapiens; experiment: Inhibition of mRNA splicing of SMN2 exon 7 in fibroblasts derived from human SMA type 1 patient assessed as increase in SMN protein level at 0.01 to 10 uM by HTRF assay
[14] = species: Homo sapiens; experiment: Inhibition of mRNA splicing of SMN2 exon 7 in spinal motor neurons derived from human SMA type 1/2 patient induced pluripotent stem cells assessed as increase in SMN protein level at 0.01 to 1 uM by HTRF assay; set-up: scale not given: the % may be the effect or the level left
[15] = test system: Mus musculus; experiment: Inhibition of mRNA splicing of human SMN2 exon 7 in transgenic SMA C/C-allele mouse brain administered orally qd for 10 days; assay type: functional, organism-based
[16] = test system: Mus musculus; experiment: Inhibition of mRNA splicing of human SMN2 exon 7 in transgenic SMA C/C-allele mouse brain assessed as increase in SMN protein level administered orally qd for 10 days; assay type: functional, organism-based
[17] = AUC in plasma of wild type mouse at 1 mg/kg, ip measured on postnatal day 10; assay type: ADME, organism-based
[18] = test system: Mus musculus; experiment: as §1, with “in brain” for “in quadriceps”, “at 0.1” for “at 3”; assay type: functional; set-up: scale not given: the % may be the effect or the level left
[19] = Unbound AUC in plasma of wild type mouse at 1 mg/kg, ip measured on postnatal day 10; assay type: ADME, organism-based; conditions: in vivo
[20] = test system: Mus musculus; experiment: Increase in body weight of delta7 mouse harboring FVB.Cg-Tg(SMN2 delta7)4299Ahmb Tg(SMN2)89Ahmb Smn1tm1Msd/J at 0.03 to 0.1 mg/kg, ip qd administered from PND3 to PND23 followed by 0.03 to 0.1 mg/kg/day via oral gavage from PND24 to PND65; assay type: functional, organism-based
[21] = test system: Mus musculus; experiment: Increase in survival of delta7 mouse harboring FVB.Cg-Tg(SMN2 delta7)4299Ahmb Tg(SMN2)89Ahmb Smn1tm1Msd/J at 0.03 to 0.1 mg/kg, ip qd administered from PND3 to PND23 followed by 0.03 to 0.1 mg/kg/day via oral gavage from PND24 to PND65; assay type: functional, organism-based
[22] = test system: Mus musculus; experiment: as §1, with “at 0.1” for “at 3”; assay type: functional; set-up: scale not given: the % may be the effect or the level left

Row | Compound | Activity [1] | Survival [2] | Activity [3] | Activity [4] | Survival [5] | Vd [6] | Activity [7] | Activity [8] | AUC [9] | Activity [10] | Activity [11] | fAUC [12] | further results
1 | Cc1cn2cc(-c3cc(=O)n4cc(N5CCN(C)CC5)ccc4n3)cc(C)c2n1 | Active | 80 - 90% | Non-Toxic | 130% | 80 - 90% | 4.3 L/kg | Dose-dependent effect | Non-Toxic | 1300 ng·h/mL | Active | 162% | 208 ng·h/mL | 
2 | CCc1nc(C)cn2nc(-c3cc(=O)n4cc(C5CCN(C)CC5)cc(C)c4n3)cc12 | Active | 80 - 90% | Non-Toxic | 160% | 80 - 90% | 20 L/kg | Dose-dependent effect | Non-Toxic | 5900 ng·h/mL | Active | 135% | 118 ng·h/mL | inhibition [13]: Active; Activity [14]: 60 to 80%; inhibition [15]: Dose-dependent effect; inhibition [16]: Dose-dependent effect
3 | Cc1cn2cc(-c3cc(=O)n4cc(N5CCN(C)CC5)ccc4n3)cc(F)c2n1 |  |  | Non-Toxic |  |  | 2.4 L/kg |  | Non-Toxic |  |  |  |  | AUC [17]: 4300 ng·h/mL; Activity [18]: 72%; fAUC [19]: 721 ng·h/mL; Activity [20]: Active; Activity [21]: Active; Activity [22]: 107%

— ChEMBL document CHEMBL4477215, “Specific Correction of Alternative Survival Motor Neuron 2 Splicing by Small Molecules: Discovery of a Potential Novel Medicine To Treat Spinal Muscular Atrophy” (J Med Chem, 2016)
